For this assay, the system named is LL/2 lung cancer tumor endothelial cells. Nature of the assay: Lung LL2 ex vivo model of tumor angiogenesis. Type of assay: cell-based, mouse. The conditions noted are these: for 48 hrs (morphology observations): LL/2 tumor endothelial cells; for Cell death: drug treatment for two days, ratio of red area to total endothelial cell area. Summed up:
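LL2 mouse tumor fragments (~0.075 mm³) embedded in Matrigel and cultured in endothelial growth medium at 37 °C until endothelial outgrowth (~4 days) before treatment. Cell death assessed e.g. 48 h after drug by fluorescein diacetate (live)/propidium iodide (dead) staining and red/green fluorescence imaging.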

Setting [1] is: Mus musculus, Endothelial cell, 48 h, read-out: Cell death.

As to `CCCCCCCCCCCCCCOc1ccc(S(=O)(=O)c2cnc3ccc([S+](C)[O-])cc3c2N2CCC(N3CCC(N4CCN(CCO)CC4)CC3)CC2)cc1` (centres unmarked) [Compound 345], where the note is “20 μm”, the “48 hrs (morphology observations)” value is “*** (more than 50% but less than 100% of endothelial cells vesicularize in cell shape)” and the Cell death was found to be 50%.

On to `COc1ccc(S(=O)(=O)c2cnc3cc(OC)c(OC)cc3c2N2CCC(N3CCCCC3)CC2)cc1OC` [Compound 122], for which, under “20 μm”, the “48 hrs (morphology observations)” value is on record as 0 and the Cell death was found to be 10%.

Take `CCc1ccc(S(=O)(=O)c2cnc3ccc(OC(F)(F)F)cc3c2-n2cnnn2)cc1` [Compound 125]: the “48 hrs (morphology observations)” value (20 μm) is reported as “* (50% or less of cells vesicularize in cell shape)”. Further, under setting [1], the cytotoxicity at 20 µM amounted to 10%.

For the compound `CCCCCCCCCCOc1ccc(S(=O)(=O)c2cnc3ccc([S+](C)[O-])cc3c2N2CCC(N3CCCN(C)CC3)CC2)cc1` (centres unmarked) [Compound 267], under “10 μm”, the “48 hrs (morphology observations)” value is on record as 0 and the Cell death came to 5%.

For `CCCCCCCOc1ccc(S(=O)(=O)c2cnc3ccc([S+](C)[O-])cc3c2N2CCN(C3CCN(Cc4ccccc4)C3)CC2)cc1` (centres unmarked) [Compound 278], where the note is “10 μm”, the “48 hrs (morphology observations)” value is listed as “* (50% or less of cells vesicularize in cell shape)” and the Cell death turned out to be 50%.

As to `CCCCOc1ccc(S(=O)(=O)c2cnc3ccc(SC)cc3c2N2CCCN(C3CCSCC3)CC2)cc1` [Compound 358], the “48 hrs (morphology observations)” value (40 μm) is reported as 0. For the same compound, the cytotoxicity at 40 µM under setting [1] came out at 0%.

`COc1ccc(S(=O)(=O)c2cnc3cc(OC)c(OC)cc3c2N2CCCN(c3nc4ccc(Cl)cc4s3)CC2)cc1` [Compound 327]: under “40 μm”, the “48 hrs (morphology observations)” value worked out at 0. Further, under setting [1], the cytotoxicity at 40 µM is 20%.

As to `CCCCOc1ccc(S(=O)(=O)c2cnc3ccc(SC)cc3c2N2CCC(N3CCN(c4ccc(F)cc4)CC3)CC2)cc1` [Compound 233], for the setting “40 μm”, the “48 hrs (morphology observations)” value is reported as 0 and the Cell death turned out to be 5%.

For `COc1ccc(S(=O)(=O)c2cnc3cc(OC)c(OC)cc3c2N2CCC(N3CCCC3=O)CC2)cc1` [Compound 321], where the note is “40 μm”, the “48 hrs (morphology observations)” value was 0 and the Cell death was found to be 40%.

Turning to `CCCCCCCCCCOc1ccc(S(=O)(=O)c2cnc3ccc([S+](C)[O-])cc3c2N2CCC(N3CCC(N4CCN(C)CC4)CC3)CC2)cc1` (centres unmarked) [Compound 285], for the setting “10 μm”, the “48 hrs (morphology observations)” value is recorded as “*** (more than 50% but less than 100% of endothelial cells vesicularize in cell shape)” and the Cell death was determined as 60%.

Take `CCCCOc1ccc(S(=O)(=O)c2cnc3ccc(SC)cc3c2N2CCC(N3CCSCC3)CC2)cc1` [Compound 243]: under “40 μm”, the “48 hrs (morphology observations)” value is given as 0 and the Cell death is given as 20%.

As for `CCCCOc1ccc(S(=O)(=O)c2cnc3ccc(C(=O)OCC)cc3c2N2CCCN(CCN3CCCCC3)CC2)cc1` [Compound 181], where the note is “40 μm”, the “48 hrs (morphology observations)” value is “**** (100% of endothelial cells vesicularize in cell shape and look flattened in morphology (indicating disintegration of the cell body))”; the Cell death turned out to be 100%.

In the case of `CCOC(=O)c1ccc2ncc(S(=O)(=O)c3ccc(OC)cc3)c(-n3nnc4ccccc43)c2c1` [Compound 142], the “48 hrs (morphology observations)” value (20 μm) is “**** (100% of endothelial cells vesicularize in cell shape and look flattened in morphology (indicating disintegration of the cell body))”.

`CCCCOc1ccc(S(=O)(=O)c2cnc3ccc(C(=O)OCC)cc3c2N2CCC(N3CCCCCC3)CC2)cc1` [Compound 176]: for the setting “40 μm”, the “48 hrs (morphology observations)” value is listed as “*** (more than 50% but less than 100% of endothelial cells vesicularize in cell shape)” and the Cell death is listed as 100%.

`CCCCOc1ccc(S(=O)(=O)c2cnc3ccc(SC)cc3c2N2CCCN(C3COC3)CC2)cc1` [Compound 355]: the “48 hrs (morphology observations)” value (40 μm) was found to be 0. Also, under setting [1], the cytotoxicity at 40 µM is 0%.

As to `CCOC(=O)c1ccc(N2CCN(c3c(S(=O)(=O)c4ccc(OC)cc4)cnc4cc(OC)c(OC)cc34)CC2)cc1` [Compound 317], under “40 μm”, the “48 hrs (morphology observations)” value came out at 0 and the Cell death turned out to be 30%.

`CNC(=O)c1ccc2ncc(S(=O)(=O)c3ccc(OC)cc3)c(NC)c2c1` [Compound 360]: the “48 hrs (morphology observations)” value (40 μm) is 0. In addition, under setting [1], the cytotoxicity at 40 µM came to 20%.

In the case of `CCCCCCCOc1ccc(S(=O)(=O)c2cnc3ccc(SC)cc3c2N2CCN(CCN3CCCCC3)CC2)cc1` [Compound 281], the Cell death (20 μm) was found to be 50%.

For `CCc1ccc(S(=O)(=O)c2cnc3ccc(OC(F)(F)F)cc3c2-n2cccc2)cc1` [Compound 108], where the note is “20 μm”, the “48 hrs (morphology observations)” value stood at 0 and the Cell death was 0%.

As to `CCCCOc1ccc(S(=O)(=O)c2cnc3ccc([S+](C)[O-])cc3c2N2CCC(N3CCC(CO)CC3)CC2)cc1` (centres unmarked) [Compound 240], under “40 μm”, the “48 hrs (morphology observations)” value was 0 and the Cell death was 30%.

As for `CCCCOc1ccc(S(=O)(=O)c2cnc3ccc(C(=O)OCC)cc3c2N2CCS(=O)(=O)CC2)cc1` [Compound 196], where the note is “40 μm”, the “48 hrs (morphology observations)” value was 0 and the Cell death is 30%.

In the case of `CCCCOc1ccc(S(=O)(=O)c2cnc3ccc(SC)cc3c2N2CCC3C(COCCN3CC(C)C)C2)cc1` (centres unmarked) [Compound 352], for the setting “40 μm”, the “48 hrs (morphology observations)” value is listed as “*** (more than 50% but less than 100% of endothelial cells vesicularize in cell shape)”. Also, under setting [1], the cytotoxicity at 40 µM worked out at 100%.

`CCCCCCCCCCCCOc1ccc(S(=O)(=O)c2cnc3ccc([S+](C)[O-])cc3c2N2CCC(N3CCC(N4CCN(C)CC4)CC3)CC2)cc1` (centres unmarked) [Compound 341]: for the setting “20 μm”, the “48 hrs (morphology observations)” value is reported as “*** (more than 50% but less than 100% of endothelial cells vesicularize in cell shape)” and the Cell death turned out to be 80%.

Take `COc1ccc(S(=O)(=O)c2cnc3cc(OC)c(OC)cc3c2N2C[C@@H]3C[C@H]2CN3C)cc1` [Compound 306]: the “48 hrs (morphology observations)” value (40 μm) came to 0. The cytotoxicity at 40 µM under setting [1] stood at 40%.

`CCCCOc1ccc(S(=O)(=O)c2cnc3ccc(SC)cc3c2N2CCCN(S(=O)(=O)NCC(F)(F)F)CC2)cc1` [Compound 353]: the “48 hrs (morphology observations)” value (40 μm) is given as 0. Under setting [1], the cytotoxicity at 40 µM turned out to be 0%.

For `CCCCOc1ccc(S(=O)(=O)c2cnc3ccc(SC)cc3c2N2CCC(N3CCC(N4CCCCC4)CC3)CC2)cc1` [Compound 231], under “40 μm”, the “48 hrs (morphology observations)” value is on record as “*** (more than 50% but less than 100% of endothelial cells vesicularize in cell shape)” and the Cell death was 100%.

In the case of `CCc1ccc(S(=O)(=O)c2cnc3ccc(OC(F)(F)F)cc3c2NCc2ccncc2)cc1` [Compound 106], for the setting “20 μm”, the “48 hrs (morphology observations)” value is on record as 0 and the Cell death came out at 5%.

In the case of `CCCCOc1ccc(S(=O)(=O)c2cnc3ccc(SC)cc3c2N2CCCN(CCO)CC2)cc1` [Compound 351], the “48 hrs (morphology observations)” value (40 μm) is “*** (more than 50% but less than 100% of endothelial cells vesicularize in cell shape)”. Further, the cytotoxicity at 40 µM under setting [1] came to 100%.

Consider `CCCCOc1ccc(S(=O)(=O)c2cnc3ccc([S+](C)[O-])cc3c2N2CCC(N3CCC(N4CCCCC4)CC3)CC2)cc1` (centres unmarked) [Compound 237], for which, under “40 μm”, the “48 hrs (morphology observations)” value was “*** (more than 50% but less than 100% of endothelial cells vesicularize in cell shape)” and the Cell death worked out at 100%.

Turning to `CCN(CC)CCOc1ccc(S(=O)(=O)c2cnc3ccc(SC)cc3c2N2CCCN(C)CC2)cc1` [Compound 242], where the note is “40 μm”, the “48 hrs (morphology observations)” value amounted to 0 and the Cell death was 30%.

As for `CCCCCCCCCCCCOc1ccc(S(=O)(=O)c2cnc3ccc([S+](C)[O-])cc3c2N2CCC(N3CCC(N4CCN(C)CC4)CC3)CC2)cc1F` (centres unmarked) [Compound 370], the Cell death (20 μm) worked out at 20%.

As for `CCCCOc1ccc(S(=O)(=O)c2cnc3ccc([S+](C)[O-])cc3c2N2CCC(N3CCCCC3)CC2)cc1` (centres unmarked) [Compound 167], for the setting “20 μm”, the “48 hrs (morphology observations)” value was 0 and the Cell death came out at 40%.

With `CCCCCCCCCCCCCCCCOc1ccc(S(=O)(=O)c2cnc3ccc([S+](C)[O-])cc3c2N2CCC(N3CCC(N4CCCCC4)CC3)CC2)cc1` (centres unmarked) [Compound 377], for the setting “20 μm”, the “48 hrs (morphology observations)” value is recorded as 0 and the Cell death was found to be 10%.

Consider `CCCCCCCOc1ccc(S(=O)(=O)c2cnc3ccc(SC)cc3c2N2CCC(N3CCC(O)CC3)CC2)cc1` [Compound 223], for which the “48 hrs (morphology observations)” value (40 μm) is given as “*** (more than 50% but less than 100% of endothelial cells vesicularize in cell shape)”. For the same compound, the cytotoxicity at 40 µM under setting [1] was 30%.

The record behind these values is patent US20250230226A1, “PLXDC1/PLXDC2 ACTIVATORS AND THEIR USE IN THE TREATMENT OF BLOOD VESSEL DISORDERS” (THE REGENTS OF THE UNIVERSITY OF CALIFORNIA, priority 2019, published 2025).
